Data: patent publication US20220036967A1, “A METHOD TO DETERMINE AGENTS FOR PERSONALIZED USE” (priority 2018, published 2022)

Tested on: liver metastasis of a breast carcinoma
Assay: treatment of the individual patient chosen according to the test results
Assay type: in vivo, human
Source text: Biopsy material of a liver metastasis of a breast carcinoma has been obtained from a patient.

## CCc1c2c(nc3ccc(OC(=O)N4CCC(N5CCCCC5)CC4)cc13)-c1cc3c(c(=O)n1C2)COC(=O)[C@]3(O)CC [Irinotecan]
Before treatment 22,230 units/ml, infused in two-weeks intervals according to standard protocols
  tumor marker CA15.3 after treatment: 1513 units
Infused in two-weeks intervals
  malignant ascites: markedly reduced

## Keytruda: PDL Antibody therapy
100 mg
  tumor markers in controls: did not change tumor markers
